For seven molecules, GI50 and TGI results are on record in PubChem BioAssay (NCI).

SMILES strings stand for the structures. Where “and” joins values, the source holds several entries; their conditions need not be identical. Identical values can stand only once.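 48-hour exposure; five concentrations; linearly interpolated endpoints. Here, GI50 denotes the concentration required for 50% inhibition of growth. At the TGI there is no net growth.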 Bounds are passed on as bounds.

Among the test systems are RPMI-8226 leukemia; OVCAR-3 ovarian; NCI-H460 lung; OVCAR-4 ovarian; A498 renal; MDA-MB-435; IGROV1 ovarian; SNB-19 CNS; 786-0 renal; A549 NSCLC.
What all share (assay): growth of human tumour cells (NCI), 48 h

Take `CC(C)(C)c1ccc(Oc2ccc(N)cn2)cc1`: the GI50 in the experiment on RPMI-8226 leukemia is 1.99 µM; in the experiment with OVCAR-3 ovarian it was 26 µM; in the experiment with NCI-H460 lung, 72.3 µM; in the experiment with OVCAR-4 ovarian, 32.8 µM; in the experiment with A498 renal it was 11.7 µM; in the experiment on MDA-MB-435 it was 72.9 µM. Besides, the GI50 in the experiment on IGROV1 ovarian is over 100 µM; in the experiment with SNB-19 CNS, over 100 µM; in the experiment on 786-0 renal, 16.8 µM; in the experiment on A549 NSCLC, 9.19 µM. Also, the TGI with RPMI-8226 leukemia was 41.2 µM; in the experiment with OVCAR-3 ovarian it was over 100 µM; with NCI-H460 lung it was over 100 µM; in the experiment on OVCAR-4 ovarian, over 100 µM; in the experiment on A498 renal, over 100 µM; in the experiment on MDA-MB-435, over 100 µM. For the same molecule, the TGI in the experiment with IGROV1 ovarian, in the experiment with SNB-19 CNS, in the experiment with 786-0 renal and with A549 NSCLC was over 100 µM throughout.
Turning to `CC1(C)CNc2cc(NC(=O)c3cccnc3NCc3ccncc3)ccc21`, the GI50 in the experiment on RPMI-8226 leukemia was 21.9 µM; in the experiment with OVCAR-3 ovarian, 21.9 µM; with NCI-H460 lung, 32.3 µM; with OVCAR-4 ovarian, 18 µM; in the experiment with A498 renal it was 12.5 µM; in the experiment on MDA-MB-435, 26.1 µM. For the same molecule, the GI50 with IGROV1 ovarian was 19.9 µM; with SNB-19 CNS it was 48.4 µM; with 786-0 renal, 45.1 µM; with A549 NSCLC, 31.9 µM. In addition, the TGI is over 100 µM in the experiment on RPMI-8226 leukemia; over 77.5 µM in the experiment on OVCAR-3 ovarian; over 100 µM in the experiment with NCI-H460 lung; over 100 µM in the experiment with OVCAR-4 ovarian; over 79.7 µM with A498 renal; over 100 µM in the experiment with MDA-MB-435. Moreover, the TGI in the experiment with IGROV1 ovarian was over 84.2 µM; in the experiment on SNB-19 CNS it was over 100 µM; in the experiment on 786-0 renal, over 100 µM; with A549 NSCLC, over 100 µM.
As to `C=C/C=C/[C@@H](O)CC(=C)C[C@H]1OC2[C@H](C)[C@@H](OC(=O)C[C@H]3C[C@H](OC(C)=O)C[C@@]4(C[C@@](C)(O)C[C@H](CC(=C)[C@@H](C)[C@H](OC(C)=O)[C@H](C)C(=O)C[C@@H]5C[C@H](OC)CC6(C[C@@H](O)C[C@H](/C=C\CCC[C@H]7O[C@](O)(C=C[C@H]7C)[C@H]2O)O6)O5)O4)O3)[C@@H]1O`, the GI50 with RPMI-8226 leukemia is 0.0025 µM; in the experiment with OVCAR-3 ovarian, under 0.0025 µM; with NCI-H460 lung it was 0.000798 µM and 0.0025 µM; in the experiment with OVCAR-4 ovarian, 0.000835 µM and 0.0025 µM; in the experiment on A498 renal, 0.000388 µM and 0.0025 µM; in the experiment on MDA-MB-435, under 0.0025 µM. For the same molecule, the GI50 is 0.00158 µM and < 0.0025 µM in the experiment with IGROV1 ovarian; 0.000625 µM and 0.0025 µM in the experiment with SNB-19 CNS; 0.000572 µM and 0.0025 µM with 786-0 renal. The TGI was 0.0821 µM in the experiment with RPMI-8226 leukemia; under 0.0025 µM with OVCAR-3 ovarian; 0.00529 µM with NCI-H460 lung; over 25 µM with OVCAR-4 ovarian; 0.00544 µM in the experiment with A498 renal; under 0.0025 µM with MDA-MB-435. Also, the TGI in the experiment on IGROV1 ovarian is under 0.0025 µM; in the experiment with SNB-19 CNS it was over 25 µM; in the experiment on 786-0 renal it was over 25 µM.
For `Cc1ccc(S(=O)(=O)SC(C)(C)C)cc1`, the TGI in the experiment on RPMI-8226 leukemia is 46.4 µM; with OVCAR-3 ovarian, 39.3 µM; in the experiment with NCI-H460 lung it was over 100 µM; with OVCAR-4 ovarian, 46.5 µM; in the experiment on A498 renal, over 100 µM; in the experiment with MDA-MB-435, 77.6 µM. The TGI was 37.3 µM in the experiment with IGROV1 ovarian, over 100 µM in the experiment on SNB-19 CNS, 31.8 µM in the experiment on 786-0 renal and over 100 µM in the experiment on A549 NSCLC.
With `COCc1c(-c2cc3cc(C)cc(OC)c3s2)c2c(N)ncnn2c1CN1CCNC(=O)C1`, the GI50 in the experiment with RPMI-8226 leukemia is 1.58 µM; with OVCAR-3 ovarian, 8.08 µM; with NCI-H460 lung it was 4.05 µM; with OVCAR-4 ovarian, 1.88 µM; with A498 renal it was 0.0102 µM; with MDA-MB-435, 4.29 µM. In addition, the GI50 was 3.39 µM in the experiment on IGROV1 ovarian, 8.21 µM in the experiment on SNB-19 CNS, 5.86 µM in the experiment with 786-0 renal and 3.2 µM in the experiment on A549 NSCLC. In addition, the TGI with RPMI-8226 leukemia was 6.83 µM; in the experiment on OVCAR-3 ovarian, over 100 µM; with NCI-H460 lung, over 100 µM; in the experiment with OVCAR-4 ovarian, 61.1 µM; in the experiment with A498 renal, 0.0803 µM; in the experiment with MDA-MB-435, 24 µM. In addition, the TGI is over 100 µM with IGROV1 ovarian, over 100 µM in the experiment with SNB-19 CNS, 82.9 µM in the experiment on 786-0 renal and 29.9 µM in the experiment on A549 NSCLC.
Regarding `NCCCC[C@@H]1NC(=O)[C@H](CC(=O)O)NC(=O)CNC(=O)[C@H](CCCN=C(N)N)NC(=O)[C@@H](N)CSSC[C@@H](C(=O)O)NC(=O)[C@H](CC(=O)O)NC(=O)[C@@H]2CCCN2C(=O)CNC1=O`, the GI50 in the experiment on RPMI-8226 leukemia, in the experiment with OVCAR-3 ovarian, in the experiment on NCI-H460 lung, with OVCAR-4 ovarian, in the experiment with A498 renal and with MDA-MB-435 was over 100 µM in each case. Also, the GI50 in the experiment with IGROV1 ovarian, in the experiment with SNB-19 CNS, in the experiment on 786-0 renal and in the experiment on A549 NSCLC was over 100 µM each time. The TGI with RPMI-8226 leukemia, in the experiment on OVCAR-3 ovarian, in the experiment on NCI-H460 lung, with OVCAR-4 ovarian, in the experiment on A498 renal and in the experiment on MDA-MB-435 was over 100 µM in each case. The TGI with IGROV1 ovarian, with SNB-19 CNS, in the experiment on 786-0 renal and with A549 NSCLC was over 100 µM throughout.
For the molecule `CCc1ccc(CCC(=O)Nc2ncc(Cc3ccc(Cl)cc3)s2)o1`, the GI50 with RPMI-8226 leukemia was 0.372 µM; in the experiment on OVCAR-3 ovarian, 0.248 µM; in the experiment on NCI-H460 lung it was 0.335 µM; in the experiment with OVCAR-4 ovarian it was over 100 µM; in the experiment on A498 renal, 0.208 µM; in the experiment on MDA-MB-435, 0.147 µM. The GI50 in the experiment with IGROV1 ovarian is 0.549 µM; in the experiment on SNB-19 CNS it was 0.463 µM; in the experiment on 786-0 renal it was 0.582 µM; in the experiment with A549 NSCLC, 0.496 µM. The TGI was over 100 µM in the experiment with RPMI-8226 leukemia; 0.682 µM with OVCAR-3 ovarian; over 100 µM in the experiment on NCI-H460 lung; over 100 µM with OVCAR-4 ovarian; 0.844 µM with A498 renal; 0.366 µM in the experiment on MDA-MB-435. For the same molecule, the TGI in the experiment with IGROV1 ovarian, with SNB-19 CNS, with 786-0 renal and in the experiment on A549 NSCLC was over 100 µM each time.
